{"source": "patent US20200223826A1", "about": "“Glucose-6-Phosphate Dehydrogenase (G6PD)-Modulating Agents And Methods Of Treating G6PD Deficiency” (The Board of Trustees of the Leland Stanford Junior …, priority 2017, published 2020)", "key": {"D181A G6PD": {"biological_target": "T1, D181A G6PD (Homo sapiens, UniProt P11413, D181A)", "T1 construct": "His (pET-28a) (N, cleaved yes); made in house; host or cells: E. coli C43 (DE3)", "T1 sequence (P11413 whole entry D181A)": "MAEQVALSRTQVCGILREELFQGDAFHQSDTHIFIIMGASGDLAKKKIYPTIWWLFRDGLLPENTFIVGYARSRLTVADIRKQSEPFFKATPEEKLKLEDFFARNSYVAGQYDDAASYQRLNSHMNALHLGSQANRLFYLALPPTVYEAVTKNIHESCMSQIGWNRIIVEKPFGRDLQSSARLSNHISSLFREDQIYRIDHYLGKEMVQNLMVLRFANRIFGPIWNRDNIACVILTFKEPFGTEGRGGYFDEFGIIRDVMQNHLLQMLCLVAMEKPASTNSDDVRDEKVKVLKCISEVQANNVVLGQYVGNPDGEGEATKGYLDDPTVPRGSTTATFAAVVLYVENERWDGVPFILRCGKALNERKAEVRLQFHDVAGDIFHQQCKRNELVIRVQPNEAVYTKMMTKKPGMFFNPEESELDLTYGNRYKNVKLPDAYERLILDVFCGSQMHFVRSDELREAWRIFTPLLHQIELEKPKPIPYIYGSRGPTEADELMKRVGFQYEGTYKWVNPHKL", "experiment": "Canton-mimicking mutant: activity and proteolytic stability", "assay_type": "biochemical", "experimental": "(§1) Enzyme activity was measured by monitoring NADPH production, which was coupled with diaphorase converting resazurin to fluorescent resorufin (excitation at 565 nm and emission at 590 nm); fluorescent signal was thus proportional to G6PD activity. Assays were performed at 25° C. and run for 5 minutes in buffer containing 50 mM Tris (pH 7.4), 0.5 mM EDTA, 3.3 mM MgCl2, 1 U/ml diaphorase, 0.1 mM resazurin. 10 ng of recombinant enzymes or 10 μg of cell lysates was used for the assay with 10 μM NADP^+ (Sigma) as cofactor and 100 μM G6P (Sigma) as substrate. Steady-state kinetic parameters were obtained by varying concentrations of NADP^+ (0-10 μM) with a constant concentration of G6P (100 μM) and similarly for G6P (0-100 μM) with a constant concentration of NADP^+ (10 μM) with 10 ng of recombinant enzymes. Data analysis was performed using GraphPad Prism software v.6 (GraphPad Software, La Jolla, Calif. USA). Kinetic parameters were obtained by fitting the data to the Michaelis-Menten equation.\n(§2) 200 ng of recombinant enzymes were incubated with 1 μL of 10 ng/μL chymotrypsin for 1 hour at room temperature. 100 μM of the compound was added to some reaction conditions. The following protein level was examined by Western blot."}, "N185A G6PD": {"biological_target": "T2, N185A G6PD (Homo sapiens, UniProt P11413, N185A)", "T2 construct": "His (pET-28a) (N, cleaved yes); made in house; host or cells: E. coli C43 (DE3)", "T2 sequence (P11413 whole entry N185A)": "as the sequence (P11413 whole entry D181A) above, with A181D, N185A counted along it", "experiment": "Canton-mimicking mutant: activity and proteolytic stability", "assay_type": "biochemical", "experimental": "as §1, §2"}, "human erythrocytes [1]": {"test_system": "human erythrocytes", "experiment": "ROS levels in erythrocytes under oxidative stressors", "assay_type": "cell-based", "details": "drug-induced oxidative stress", "experimental": "(§3) De-identified blood samples were obtained from the Stanford Blood Center. Erythrocytes were collected by filtering the samples through a cellulose slurry to remove platelets and leukocytes and then washed with saline. G6PD activity was measured (Beutler E. Red cell metabolism: A manual of biochemical methods (3rd edition). Grune & Stratton (1984)). […] A 5% erythrocyte suspension was pre-incubated with 1-5 μM AG1 at 4° C. overnight, which was followed by treatment with (or without) either 1 mM chloroquine (CQ) or 1 mM diamide for 3-4 hours at 37° C. (for hemolysis assay with chloroquine, the mixture was incubated under light). Then centrifugation at 1,000 rpm for 5 minutes was followed. Hemoglobin release in the supernatant was monitored by measuring absorbance at 540 nm. […] After wash, the samples were lysed with 0.1% Triton X-100 (final concentration), and the florescence was analyzed with excitation/emission at 485/525 nm. GSH measurement was determined using a Cayman glutathione assay kit (Cayman Chemicals, 703002). […] The absorbance was read at 412 nm. For storage assay, a 5% erythrocyte suspension was stored at 4° C. with and without 1 μM AG1, and hemolysis and G6PD activity were monitored every week for 28 days to examine whether AG1 improves preservation of erythrocytes over time. Protein leakage was also examined by measuring the absorbance of the supernatant of samples at 280 nm. […]"}, "[2]": {"biological_target": "T3, G6PD in lysate of human fibroblasts with the Mediterranean variant (Homo sapiens, UniProt P11413, S188F)", "T3 construct": "host or cells: subject-derived fibroblast cell line", "T3 sequence (P11413 2-515 S188F limits assumed)": "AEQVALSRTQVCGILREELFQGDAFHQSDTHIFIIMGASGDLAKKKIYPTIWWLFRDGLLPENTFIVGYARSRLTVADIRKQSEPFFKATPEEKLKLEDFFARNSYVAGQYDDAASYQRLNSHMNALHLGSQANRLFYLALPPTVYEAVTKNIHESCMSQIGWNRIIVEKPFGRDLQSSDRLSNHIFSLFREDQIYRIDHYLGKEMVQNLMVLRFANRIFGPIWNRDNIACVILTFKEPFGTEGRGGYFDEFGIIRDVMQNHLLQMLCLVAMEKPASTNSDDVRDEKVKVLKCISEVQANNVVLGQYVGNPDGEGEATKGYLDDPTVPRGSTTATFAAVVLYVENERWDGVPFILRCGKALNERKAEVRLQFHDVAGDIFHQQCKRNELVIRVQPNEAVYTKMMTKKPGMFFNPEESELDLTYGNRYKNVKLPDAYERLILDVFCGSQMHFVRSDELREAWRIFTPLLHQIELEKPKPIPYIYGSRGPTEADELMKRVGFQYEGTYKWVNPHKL", "experiment": "G6PD activity in fibroblast lysate", "assay_type": "cell-based", "experimental": "Lymphocytes derived from a normal subject (HG 00866) and a G6PD-deficient subject carrying Canton variant in G6PD (HG 02367) were purchased from Coriell Institute and cultured in RPMI 1640 supplemented with 15% fetal bovine serum (FBS), 100 U/ml penicillin, and 100 μg/ml streptomycin. An SH-SY5Y neuroblastoma cell line was cultured in Dulbecco's Modification of Eagle's Medium/Ham's F-12 50/50 Mix supplemented with 10% FBS, 100 U/ml penicillin, and 100 μg/ml streptomycin. A G6PD-deficient subject-derived fibroblast cell line carrying Mediterranean variant and normal fibroblast cell line as control were purchased from Coriell Institute (GM 01152) and ThermoFisher Scientific (C0135C), respectively, and cultured in minimum essential medium supplemented with 15% FBS, 100 U/ml penicillin, and 100 μg/ml streptomycin. All the cell lines were maintained at 37° C. in a humidified incubator with an atmosphere of 5% of CO2 and 95% air.\nEnzyme activity was measured by monitoring NADPH production, which was coupled with diaphorase converting resazurin to fluorescent resorufin (excitation at 565 nm and emission at 590 nm); fluorescent signal was thus proportional to G6PD activity. Assays were performed at 25° C. and run for 5 minutes in buffer containing 50 mM Tris (pH 7.4), 0.5 mM EDTA, 3.3 mM MgCl2, 1 U/ml diaphorase, 0.1 mM resazurin. […]"}, "human erythrocytes [3]": {"test_system": "human erythrocytes", "experiment": "GSH levels in erythrocytes under oxidative stressors", "assay_type": "cell-based", "details": "drug-induced oxidative stress", "experimental": "as §3"}, "human erythrocytes [4]": {"test_system": "human erythrocytes", "experiment": "Erythrocyte refrigerated storage assay, protein leakage", "assay_type": "cell-based", "details": "AG1 1 μM", "experimental": "as §3"}, "[5]": {"test_system": "band 3 protein in human erythrocytes", "experiment": "Band 3 protein clustering in erythrocytes", "assay_type": "cell-based", "details": "chloroquine or diamide treatment"}, "human erythrocytes [6]": {"test_system": "human erythrocytes", "experiment": "Hemolysis of human erythrocytes under oxidative stressors", "assay_type": "cell-based", "experimental": "as §3"}, "Canton G6PD": {"biological_target": "T4, Canton G6PD (Homo sapiens, UniProt P11413, R459L)", "T4 construct": "His (pET-28a) (N, cleaved yes); made in house; host or cells: E. coli C43 (DE3)", "T4 sequence (P11413 whole entry R459L)": "as the sequence (P11413 whole entry D181A) above, with A181D, R459L counted along it", "experiment": "Native gel electrophoresis, dimerization", "experimental": "200 ng of recombinant enzymes were incubated with the compound (varying in assays) for 10 minutes at room temperature. To prevent streaking and artifacts in native PAGE gel, the samples in a native state (no boiling of sample and no reducing agent in sample buffer) were electrophoresed by […]. Cross-linking assay was initiated by incubating 500 ng of recombinant enzymes in PBS with 0.1% of glutaraldehyde and different concentrations of NADP^+ (0, 10, 100, 1000 μM) or MgCl2 (0, 1, 10, 100 mM). The mixture was incubated for 10 minutes at room temperature, which was followed by the addition of 100 mM Tris (pH 8.0) at a final concentration to terminate the reaction. The samples were electrophoresed as described above."}}, "data": [{"smiles": "SCCNCCc1c[nH]c2ccccc12", "note": "[AG1, 2-[2-(1H-indol-3-yl)ethylamino]ethanethiol]", "values": [{"measurement": "activity and proteolytic stability", "setting": "D181A G6PD", "result": "increased activity and proteolytic stability"}, {"measurement": "activity and proteolytic stability", "setting": "N185A G6PD", "result": "increased activity and proteolytic stability"}, {"measurement": "ROS levels", "setting": "human erythrocytes [1]", "result": "reduced"}, {"measurement": "increase of G6PD activity in lysate", "setting": "[2]", "result": 50, "unit": "%"}, {"measurement": "GSH levels", "setting": "human erythrocytes [3]", "result": "increased"}, {"measurement": "protein leakage", "setting": "human erythrocytes [4]", "result": "decreased"}, {"measurement": "band 3 protein aggregation", "setting": "[5]", "result": "alleviated"}, {"measurement": "chloroquine-induced hemolysis", "setting": "human erythrocytes [6]; AG1 1 μM", "result": "rescued"}, {"measurement": "extent of hemolysis", "setting": "human erythrocytes [6]; AG1 5 μM, 5% erythrocyte suspension, 1 mM chloroquine or diamide", "result": "reduces the extent of hemolysis"}, {"measurement": "formation of active dimers", "setting": "Canton G6PD", "result": "promoted formation of active dimers"}]}]}
